# Calls of active or inactive are those of the source. The calls are words filed in the database; no cut-off is given here.
# How the values were obtained:
# Leishmania infantum [1] = test: (§1) Antileishmanial activity against stationary phase of Leishmania infantum MHOM/MA/67/ITMAP263 infected in BALB/c mouse assessed as decrease in parasitic load in liver at 25 mg/kg/day administered orally via gavage as bid for 5 days on 7th day post infection and measured on day 30 by limiting dilution assay relative to control; assay type: functional; details: MHOM/MA/67/ITMAP263, po
# [2] = Selectivity index, ratio of CC50 for mouse peritoneal macrophages to EC50 for Leishmania infantum MHOM/MA/67/ITMAP263 promastigotes infected in BALB/c mouse peritoneal macrophages; assay type: toxicity; details: read-out: Ratio CC50/EC50
# Leishmania infantum [3] = test: Antileishmanial activity against Leishmania infantum MHOM/MA/67/ITMAP263 promastigotes infected in BALB/c mouse peritoneal macrophages assessed as decrease in parasitic infection index incubated for 72 hrs by light microscopy; assay type: functional, organism-based
# Leishmania infantum [4] = test: as §1, with “12.5” for “25”; assay type: functional; details: MHOM/MA/67/ITMAP263, po
# Leishmania infantum [5] = test: Antileishmanial activity against Leishmania infantum MHOM/MA/67/ITMAP263 promastigotes infected in BALB/c mouse peritoneal macrophages assessed as decrease in parasitic infection index at 48 uM incubated for 72 hrs by light microscopy relative to control; assay type: functional; details: MHOM/MA/67/ITMAP263, 72 h
# Leishmania infantum [6] = test: (§2) Antileishmanial activity against stationary phase of Leishmania infantum MHOM/MA/67/ITMAP263 promastigotes infected in orally dosed BALB/c mouse assessed as decrease in parasitic load in liver administered via gavage bid for 5 days on 7th day post infection and measured on day 30 by limiting dilution assay; assay type: functional
# Leishmania infantum [7] = test: as §1, with “MHOM/MA/67/ITMAP263 promastigotes” for “MHOM/MA/67/ITMAP263”, “50” for “25”; assay type: functional; details: MHOM/MA/67/ITMAP263, po
# Leishmania infantum [8] = test: as §2, with “in” for “in orally dosed”, “at 50 mg Sb5+/kg/day, im once daily” for “administered via gavage bid”; assay type: functional, organism-based
Molecule,inhibition in vivo at 25 mg/kg/day (Leishmania infantum [1]) [%],selectivity ratio [2],inhibition (Leishmania infantum [3]),"EC50 (Leishmania infantum [3]; MHOM/MA/67/ITMAP263, 72 h) [µM]",inhibition in vivo at 12.5 mg/kg/day (Leishmania infantum [4]) [%],inhibition at 48 µM (Leishmania infantum [5]) [%],inhibition (Leishmania infantum [6]),"ED50 (Leishmania infantum [6]; MHOM/MA/67/ITMAP263, po) [mg/kg/day]","ED90 (Leishmania infantum [6]; MHOM/MA/67/ITMAP263, po) [mg/kg/day]",inhibition in vivo at 50 mg/kg/day (Leishmania infantum [7]) [%],inhibition (Leishmania infantum [8])
O=C(O[C@@H]1Cc2c(O)cc(O)cc2O[C@@H]1c1cc(O)c(O)c(O)c1)c1cc(O)c(O)c(O)c1 [EPIGALOCATECHIN GALLATE],93.6,168,Dose-dependent effect,2.6,47.5,97.7,Dose-dependent effect,12.4,21.5,98.7,
Meglumine antimoniate,,,,,,,,,,,Active

# — ChEMBL document CHEMBL4414580, “(-)-Epigallocatechin 3-O-Gallate as a New Approach for the Treatment of Visceral Leishmaniasis” (J Nat Prod, 2019)
